Test results taken from US9018237B2, “Methods for improved wound closure employing olivamine and endothelial cells” (priority 2009, dated 2015).

Tested on: human microvascular endothelial cells
Assay: in vitro model of wound healing (cell migration), time for 50% of wound to heal
Assay type: cell-based
Source text: The time for wounds to heal by 50% under the various treatment conditions was quantified.

## CC(=O)N[C@@H](CS)C(=O)O [N-acetylcysteine, reference compound]
Compared to untreated or to the additive effect of the compounds
  effect on time and extent of wound healing (in words): increased the time to 50% healing compared to untreated

## OCCc1ccc(O)c(O)c1 [Hydroxytyrosol]
Hydroxytyrosol alone versus the combination (Table 1)
  less effective in wound healing than the present art: 30%

## NCCS(=O)(=O)O [L-Taurine]
Table 9, single ingredients, Present Art and Present Art without one ingredient
  Time for 50% wound to heal: 22.5 h
